Reference: PubChem BioAssay AID2060884 (Molecular Pharmacology Branch, DTP, NCI, 2025)
pIC50: −log10 of the molar value. Values joined by “and” are separate entries in the source; they are usually repeats but may differ in a detail not shown here. Identical values can stand only once. One block for each compound: values may come before it.

Test system: NCI-H929 complex spheroids, viability % test/control
Assay: Anticancer human tumor NCI-H929 cell line growth inhibition [RAS];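 further: compound exposure lasted seven days before viability was read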;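 on viability, T/C: 100% = DMSO vehicle control viability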
Conditions: for viability, T/C: stronger effect = lower value
In short: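 Tumour cells grown as complex spheroids with HUVEC endothelial cells and mesenchymal stem cells, treated with RAS pathway inhibitor combinations. Each agent spans half-log steps from near clinical Cmax, or 10 microM where Cmax is unknown.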

[1] = curve of first compound, second compound 0.0316 µM
[2] = curve of first compound, second compound 0.1 µM
[3] = curve of first compound, second compound 0.316 µM
[4] = curve of first compound, second compound 1 µM

Compound: CC(C)NCC(C(=O)N1CCN(c2ncnc3c2C(C)CC3O)CC1)c1ccc(Cl)cc1 (configuration not stated) + C=CC(=O)N1CCN(c2nc(OCC3CCCN3C)nc3c(F)c(-c4nc(N)cc(C)c4C(F)(F)F)c(Cl)cc23)C(C)C1
pIC50 (curve of first compound, second compound 0.00316 µM): 5.55 | pIC50 (curve of first compound, second compound 0.01 µM): 5.51 | pIC50 [1]: 5.33 | pIC50 [2]: 5.39 | pIC50 [3]: 5.60 | pIC50 [4]: 5.44 | viability, T/C (second compound 0.00316 µM, first compound 0.0316 µM): 102% | viability, T/C (second compound 0.00316 µM, first compound 0.1 µM): 101% | viability, T/C (second compound 0.00316 µM, first compound 0.316 µM): 108% | viability, T/C (second compound 0.00316 µM, first compound 1 µM): 101% | viability, T/C (second compound 0.00316 µM, first compound 3.16 µM): 44.4% | viability, T/C (second compound 0.00316 µM, first compound 10 µM): 12.1% | viability, T/C (second compound 0.01 µM, first compound 0.0316 µM): 103% | viability, T/C (second compound 0.01 µM, first compound 0.1 µM): 103% | viability, T/C (second compound 0.01 µM, first compound 0.316 µM): 105% | viability, T/C (second compound 0.01 µM, first compound 1 µM): 104% | viability, T/C (second compound 0.01 µM, first compound 3.16 µM): 48.5% | viability, T/C (second compound 0.01 µM, first compound 10 µM): 15.1% | viability, T/C (second compound 0.0316 µM, first compound 0.0316 µM): 97.5% | viability, T/C (second compound 0.0316 µM, first compound 0.1 µM): 103% | viability, T/C (second compound 0.0316 µM, first compound 0.316 µM): 108% | viability, T/C (second compound 0.0316 µM, first compound 1 µM): 103% | viability, T/C (second compound 0.0316 µM, first compound 3.16 µM): 67.6% | viability, T/C (second compound 0.0316 µM, first compound 10 µM): 16.1% | viability, T/C (second compound 0.1 µM, first compound 0.0316 µM): 101% | viability, T/C (second compound 0.1 µM, first compound 0.1 µM): 105% | viability, T/C (second compound 0.1 µM, first compound 0.316 µM): 110% | viability, T/C (second compound 0.1 µM, first compound 1 µM): 108% | viability, T/C (second compound 0.1 µM, first compound 3.16 µM): 60% | viability, T/C (second compound 0.1 µM, first compound 10 µM): 15.2% | viability, T/C (second compound 0.316 µM, first compound 0.0316 µM): 102% | viability, T/C (second compound 0.316 µM, first compound 0.1 µM): 105% | viability, T/C (second compound 0.316 µM, first compound 0.316 µM): 109% | viability, T/C (second compound 0.316 µM, first compound 1 µM): 106% | viability, T/C (second compound 0.316 µM, first compound 3.16 µM): 35.4% | viability, T/C (second compound 0.316 µM, first compound 10 µM): 15.4% | viability, T/C (second compound 1 µM, first compound 0.0316 µM): 114% | viability, T/C (second compound 1 µM, first compound 0.1 µM): 115% | viability, T/C (second compound 1 µM, first compound 0.316 µM): 108% | viability, T/C (second compound 1 µM, first compound 1 µM): 108% | viability, T/C (second compound 1 µM, first compound 3.16 µM): 56.3% | viability, T/C (second compound 1 µM, first compound 10 µM): 6.44%

Compound: NC1c2ccccc2OC12CCN(c1cnc3c(N4CCCc5ncccc54)n[nH]c3n1)CC2 (configuration not stated)
viability, T/C (compound 0.0316 µM): 104% [middle of 4 runs] | viability, T/C (compound 0.1 µM): 99.1% [middle of 4 runs] | viability, T/C (compound 0.316 µM): 104% [middle of 4 runs] | viability, T/C (compound 1 µM): 102% [middle of 4 runs] | viability, T/C (compound 3.16 µM): 101% [middle of 4 runs] | viability, T/C (compound 10 µM): 69.9% [middle of 4 runs] | pIC50 (curve of compound): < 5.00

Compound: CC(Nc1ccc2c(c1)OCCn1cc(N3C(=O)OCC3C(F)F)nc1-2)C(N)=O (configuration not stated)
viability, T/C (compound 0.0316 µM): 106% [middle of 4 runs] | viability, T/C (compound 0.1 µM): 102% [middle of 4 runs] | viability, T/C (compound 0.316 µM): 107% (2×) and 97.8% and 109% | viability, T/C (compound 1 µM): 108% [middle of 4 runs] | pIC50 (curve of compound): < 5.00 and 5.21

Second part, led by results:

pIC50 [1]: 8.22 | pIC50 [2]: 8.18 | pIC50 [3]: 8.18 | pIC50 [4]: 8.18 | pIC50 (curve of first compound, second compound 3.16 µM): 8.17 | pIC50 (curve of first compound, second compound 10 µM): 8.17
Compound: CC1(C)CCC(Nc2ncc(C(F)(F)F)c(-c3c[nH]c4c(P(C)(C)=O)c(C#N)ccc34)n2)CN1 (configuration not stated) + C#Cc1c(F)ccc2cc(O)cc(-c3ncc4c(N5CC6CCC(C5)N6)nc(OCC56CCCN5CC(F)C6)nc4c3F)c12
viability, T/C (second compound 0.0316 µM, first compound 0.000949 µM): 129% | viability, T/C (second compound 0.0316 µM, first compound 0.003 µM): 98.5% | viability, T/C (second compound 0.0316 µM, first compound 0.00949 µM): 17.9% | viability, T/C (second compound 0.0316 µM, first compound 0.03 µM): 12.8% | viability, T/C (second compound 0.0316 µM, first compound 0.0949 µM): 8.56% | viability, T/C (second compound 0.0316 µM, first compound 0.3 µM): 5.72% | viability, T/C (second compound 0.1 µM, first compound 0.000949 µM): 124% | viability, T/C (second compound 0.1 µM, first compound 0.003 µM): 116% | viability, T/C (second compound 0.1 µM, first compound 0.00949 µM): 18.6% | viability, T/C (second compound 0.1 µM, first compound 0.03 µM): 13.8% | viability, T/C (second compound 0.1 µM, first compound 0.0949 µM): 8.47% | viability, T/C (second compound 0.1 µM, first compound 0.3 µM): 5.88% | viability, T/C (second compound 0.316 µM, first compound 0.000949 µM): 127% | viability, T/C (second compound 0.316 µM, first compound 0.003 µM): 114% | viability, T/C (second compound 0.316 µM, first compound 0.00949 µM): 19.6% | viability, T/C (second compound 0.316 µM, first compound 0.03 µM): 18% | viability, T/C (second compound 0.316 µM, first compound 0.0949 µM): 8.37% | viability, T/C (second compound 0.316 µM, first compound 0.3 µM): 5.86% | viability, T/C (second compound 1 µM, first compound 0.000949 µM): 121% | viability, T/C (second compound 1 µM, first compound 0.003 µM): 112% | viability, T/C (second compound 1 µM, first compound 0.00949 µM): 19.3% | viability, T/C (second compound 1 µM, first compound 0.03 µM): 48.8% | viability, T/C (second compound 1 µM, first compound 0.0949 µM): 9.11% | viability, T/C (second compound 1 µM, first compound 0.3 µM): 5.75% | viability, T/C (second compound 3.16 µM, first compound 0.000949 µM): 127% | viability, T/C (second compound 3.16 µM, first compound 0.003 µM): 118% | viability, T/C (second compound 3.16 µM, first compound 0.00949 µM): 22.1% | viability, T/C (second compound 3.16 µM, first compound 0.03 µM): 22.5% | viability, T/C (second compound 3.16 µM, first compound 0.0949 µM): 9.71% | viability, T/C (second compound 3.16 µM, first compound 0.3 µM): 6.25% | viability, T/C (second compound 10 µM, first compound 0.000949 µM): 125% | viability, T/C (second compound 10 µM, first compound 0.003 µM): 104% | viability, T/C (second compound 10 µM, first compound 0.00949 µM): 23.3% | viability, T/C (second compound 10 µM, first compound 0.03 µM): 63.5% | viability, T/C (second compound 10 µM, first compound 0.0949 µM): 14.7% | viability, T/C (second compound 10 µM, first compound 0.3 µM): 10.9%

IC50 (compound alone, run of 08/26/2024): 31.5 nM [middle of 8 runs]
Compound: CCn1c(-c2cc(N3CCN(C)CC3)cnc2C(C)OC)c2c3cc(ccc31)-c1csc(n1)CC(NC(=O)C1CC1C)C(=O)N1CCCC(N1)C(=O)OCC(C)(C)C2 (configuration not stated)
viability, T/C (compound 0.000949 µM): 102% [middle of 8 runs] | viability, T/C (compound 0.003 µM): 101% [middle of 8 runs] | viability, T/C (compound 0.00949 µM): 116% [middle of 8 runs] | viability, T/C (compound 0.0949 µM): 5.7% [middle of 8 runs] | viability, T/C (compound 0.3 µM): 3.64% [middle of 8 runs]
